# Test results as given in patent US12478694B2, “H2O2-responsive crosslinking near-infrared molecular probe for tumor microenvironment and use therefor” (SOOCHOW UNIVERSITY, priority 2019, dated 2025).
# Legend:
# [1] = Ultraviolet absorption spectrum and fluorescence spectrum of the probe; assay type: physicochemical; details: probe diluted with methanol to 1 μM
# Procedure: (§1) After diluting the H2O2 responsive NIR molecular probe prepared in Example 1 with methanol to a concentration of 1 μM, an ultraviolet-visible absorption spectrometer and a steady-state/transient fluorescence spectrometer were used to measure the ultraviolet absorption spectrum and fluorescence of the probe. Spectrum: The cytotoxicity of the probe to 4T1 was investigated by MTT (thiazole blue) colorimetry.
# [2] = system: 4T1; assay: Cytotoxicity of the probe by MTT (thiazole blue) colorimetry; assay type: cell-based, mouse; details: 4T1 cells
# Procedure: as §1
# [3] = system: 4T1 cells; assay: Co-localization of intracellular probe and intracellular mitochondria; assay type: cell-based, mouse; details: 5 μM probe, incubated 12 hours
# Procedure: Based on the method described in Example 2, 4T1 cells were seeded in a confocal small dish with 1.5×10^4 cells per well, placed in an incubator for 24 hours, and then the culture medium was discarded. The H2O2 responsive NIR molecular probe prepared in Example 1 was diluted with a culture medium to a concentration of 5 μM, and then added to a 4T1 cell culture dish, and placed in a cell incubator to incubate for 12 hours. After the probe and 4T1 cell incubation time was over, the cells were incubated with mitochondrial dye and Hoechst 33342 respectively, and the co-localization of the probe with mitochondria in 4T1 cells at the same time was observed using a confocal microscope.
# [4] = system: 4T1 cells; assay: Retention of the probe in 4T1 cells treated with hydrogen peroxide, confocal fluorescence; assay type: cell-based, mouse
# Procedure: The 4T1 cells were first treated with 100 μM hydrogen peroxide for 15 min, and then the H2O2 responsive NIR molecular probe DATC prepared in Example 1 was diluted into the cell culture medium, and then added to the 4T1 cell culture dish and incubated (The probe concentration is 5 μM). The sulfhydryl group on the protein in 4T1 cells treated with hydrogen oxide will be oxidized to sulfenic acid. When the probe entered into the tumor cell, the group 3,5-dioxocyclohexane carboxylic acid will interact with sulfenic acid cross-linking forms a CS covalent bond, so that the probe molecule is firmly connected to the macromolecular protein in the tumor cell, thereby prolonging the residence time of the molecular probe in the tumor cell, and improving the imaging effect of the probe molecule.
# Based on the method described in Example 2, 4T1 cells were seeded in a confocal small dish, 1.5×10^4 cells per well, and placed in an incubator for 24 hours. After diluting hydrogen peroxide to 100 μM with cell culture medium, it was added to a culture dish of 4T1 cells and incubated for 15 minutes, and then the culture medium was discarded. The H2O2 responsive NIR molecular probe prepared in Example 1 was diluted with a culture medium to a concentration of 5 μM, and then added to the 4T1 cell culture dish, and placed in a cell incubator for 8 hours. After incubation of the probe and 4T1 cell, added new cell culture medium and continue culturing in the incubator for 4h, 8h, 12h and 24h. Then stained the nucleus with Hoechst33342 dye solution, and observed the fluorescence in 4T1 cells at different times after hydrogen peroxide treatment with a laser confocal microscope. The fluorescent probe (TC) without 3,5-dioxocyclohexane carboxylic acid was used as a control example, and a unified experimental method was adopted.
# [5] = system: 4T1 cells; assay: Immunofluorescence of the probes in hydrogen peroxide treated 4T1 cells after re-culturing for 12 hours; assay type: cell-based, mouse; details: 100 μM H2O2 15 min, 5 μM probe 8 h, re-culture 12 hours
# Procedure: Based on the method described in Example 2, 4T1 cells were seeded in a confocal small dish, 1.5×10^4 cells per well, and placed in an incubator for 24 hours. After diluting hydrogen peroxide to 100 μM with cell culture medium, it was added to a culture dish of 4T1 cells and incubated for 15 minutes, and then the culture medium was discarded. The H2O2 responsive NIR molecular probe prepared in Example 1 was diluted with a culture medium to a concentration of 5 μM, and then added to a 4T1 cell culture dish, and placed in a cell incubator for 8 hours. After the incubation time of the probe and 4T1 cells is over, add new cell culture medium and continue culturing in the incubator for 12 hours. Subsequently, the cells were fixed with 4% paraformaldehyde at room temperature for 15 minutes, and then washed with PBS; secondly, 0.5% Trition-100 and 4T1 cells were incubated at room temperature for 5 minutes; the antibody anticysteine sulfenic acid was incubated at room temperature. After 1 hour, the antibody was washed with PBS, and then incubated at 37° C. for 30 minutes with goat anti-rabbit-Cy3. Finally, the nucleus was stained with Hoechst 33342 staining solution. […] The fluorescent probe (TC) without 3,5-dioxocyclohexane carboxylic acid was used as a control, and a unified experimental method was adopted.
# [6] = system: 4T1 mouse breast cancer tumor in BALB/c/nu female nude mice; assay: NIR fluorescence imaging of the probe at the tumor site in mice; assay type: in vivo; details: intratumoral injection, 100 μM, 50 μL
# Procedure: BALB/c/nu female nude mice inoculated with 4T1 mouse breast cancer cells were randomly divided into two groups with 5 mice in each group. After the tumor on the right forelimb of the mouse grows up, the probes DATC and TC are injected into the tumors of the two groups of nude mice by intratumoral injection, at a concentration of 100 μM (50 μL/each). Then put the probe-injected mice in the small animal IVIS Lumina XRMS live imaging system to observe the changes in the fluorescence intensity of the probe in the nude mouse tumor over time, and calculate the experimental group probe and the control group through the IVIS live imaging analysis software The fluorescence intensity of the probe at different time points at the tumor site in nude mice.
structure (smiles),measurement,setting,value
C[N+]1=C(/C=C/C=C/C=C2/N(CCCCCC(=O)NCCCn3cc(CNC(=O)[C@H](CCCCNC(=O)C4CC(=O)CC(=O)C4)NC(=O)CCC[P+](c4ccccc4)(c4ccccc4)c4ccccc4)nn3)c3ccc(S(=O)(=O)O)cc3C2(C)C)C(C)(C)c2cc(S(=O)(=O)O)ccc21 [DATC],max absorption peak,[1]; UV absorption spectrum,646 nm
same,maximum emission,[1]; fluorescence spectrum,670 nm
same,killing effect on the cells as the concentration increases,[2],no killing effect on the cells
same,co-localization of the probe with mitochondria,[3],basically coincide
same,"red fluorescence intensity in 4T1 cells 8 hours after washing off the probe, versus control probe","[4]; 100 μM H2O2 15 min, 5 μM probe 8 h, re-culture 8 h",significantly stronger
same,fluorescence signal in 4T1 cells 24h later,"[4]; 100 μM H2O2 15 min, 5 μM probe 8 h, re-culture 24 h",strong fluorescence signal
same,time the probe can stay in the cell,"[4]; fluorescence quantitative data, H2O2-treated 4T1 cells, 5 μM probe",≥ 24 h
same,content / fluorescent signal of probe in cells,[5],relatively high
same,duration of the fluorescent signal at the tumor site,[6],36 h
same,fluorescence signal of the probe at the tumor site at 2h,[6]; 2h,only slightly decreased
same,fluorescence signal of the probe at the tumor site at 12h,[6]; 12h,obvious fluorescence signal
